One data set has as its system Rat hepatocytes. Kind of data set: GSH trapping assay. The format is in vitro ADME. The note with it: 30 μM, 24 hr incubation, LC-MS detection of GSH adducts. The protocol: Rat hepatocytes were isolated from male Sprague-Dawley rats (Vivo Biotech Ltd, HYD, India), weighing 230 to 280 g by the two step collagenase perfusion method (seglen, 1976; Berry M N and Friend D S.1969). Rat hepatocytes were cultured in Dulbecco's Modified Eagle's Medium (DMEM, Gibco®, USA) supplemented with 10^−6M dexamethasone (Gibco®), 5% fetal bovine serum (Gibco®) and cocktail-A mix (CM3000, Gibco®) containing HEPES buffer (PH 7.4), GlutaMAX™, human recombinant insulin, penicillin and streptomycin. Initial cell viability assessed by Trypanblue stain 0.4% (Sigma, UK) and viability more than 80% were considered for culturing. Hepatocytes were seeded in 96 well type-I collagen coated plates (Gibco®) at 4×10^4 cells/well in 100 μL of the culture medium and incubated at 37° C. in 5% CO2 and 95% relative humidity (RH) for 4 hr of cell attachment.
After 4hr incubation, rat hepatocytes were washed twice with pre-warmed (37° C.) DMEM incubation medium supplemented with 10^−7M dexamethasone and cell maintenance cocktail-B (CM4000, Gibco®) solution to remove unattached cells. Post washing hepatocytes were treated with test and reference compounds in incubation medium at single concentration (30 μM) in duplicate and incubate further for 24 hr at 37° C. with 5% CO2 and 95% RH. The final concentration of DMSO in medium was 0.5%.
Post 24 hr incubation, hepatocyte samples were quenched with equal volumes of acetonitrile containing 0.1% formic acid followed by vortex mix, sonicate and centrifuge at 12000 rpm at room temperature for 5 min. Supernatant samples were analyzed for GSH adducts on a C18 reverse-phase column (Xbridge™ Shield, C18, 4.6×150 mm, 3.5 μm) with solvent A (10 mM ammonium formate and 0.1% formic acid/water) and solvent B (0.1% formic acid/acetonitrile).
The column was eluted with 5% B for 5 min and then with a linear gradient to 20% B over 10 min and it was maintained upto 15 min, then it was increased linearly to 40% B upto 27 min and then increase to 90% B upto 29 min, and then equilibrate back the column to 5% B upto 33 min at a flow rate of 0.6 ml/min. The column effluent was directed into the ESI source of a LTQ Velos Orbitrap mass spectrometer (Thermo Fisher Scientific, San Jose, Calif.). The ESI conditions were as follows: sheath gas flow rate, 40 arbitrary units; auxiliary gas, 30 arbitrary units; spray voltage, 4.5 kV; capillary temperature, 230° C.; capillary voltage, 30 V; and tube lens offset, 25 V. Data were acquired in positive ion mode using Xcalibur software (Thermo Fisher Scientific) with one full scan followed by two data-dependent scans of the most intense and the second most intense ions. During the data interpretation the characteristic fragments of neutral loss of glycine (75.0320 Da), pyroglutamic acid (129.0426 Da) and loss of neutral moiety GSH (307.0838 Da) and/or a specific fragment of (GSH+H)^+ (m/z 308.0911) were monitored. Finally, the fragments ions with m/z e.g. 179.0485, 177.0328 and 162.0219 Da, which were derived from the glutathione moiety were used to report GSH positive results.

For data set [1], the target named is T1, human ProRS (prolyl tRNA synthetase moiety of glutamyl prolyl tRNA synthetase) (Homo sapiens, UniProt P07814).
T1 construct: The prolyl tRNA synthetase moiety (ProRS) in the cDNA of glutamyl prolyl tRNA synthetase was subcloned; 6xHis (N, cleaved yes); made in house; host or cells: E. coli BL21 (DE3)
T1 sequence (P07814 1007-1512 limits assumed): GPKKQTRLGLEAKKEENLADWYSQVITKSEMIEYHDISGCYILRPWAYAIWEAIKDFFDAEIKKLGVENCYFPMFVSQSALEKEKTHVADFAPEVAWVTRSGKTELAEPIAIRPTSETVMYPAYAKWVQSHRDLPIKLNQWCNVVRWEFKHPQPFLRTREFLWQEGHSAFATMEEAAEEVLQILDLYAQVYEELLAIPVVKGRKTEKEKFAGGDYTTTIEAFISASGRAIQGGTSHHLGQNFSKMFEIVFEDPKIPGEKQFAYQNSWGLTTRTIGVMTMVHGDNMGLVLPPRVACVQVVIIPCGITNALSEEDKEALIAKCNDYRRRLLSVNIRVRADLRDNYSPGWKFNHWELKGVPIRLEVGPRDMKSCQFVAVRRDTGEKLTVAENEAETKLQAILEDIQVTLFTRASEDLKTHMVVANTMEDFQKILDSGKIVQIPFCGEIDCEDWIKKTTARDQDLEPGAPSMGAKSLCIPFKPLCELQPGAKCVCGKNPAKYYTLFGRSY
Put plainly: Assay for inhibitors of prolyl tRNA synthetase activity (ProRS assay, labeled proline incorporation). The format is biochemical. To be noted: ProRS 20 nM, compounds 10 μM to 0.5 nM, 10 min at 37° C.; read-out: EPR IC50. The source says: In order to establish the activities of the compounds highlighted above, we determined extent of inhibition of prolyl tRNA synthetase activity in dose response curves to obtain IC50 values.
The prolyl tRNA synthetase moiety (ProRS) in the cDNA of glutamyl prolyl tRNA synthetase was subcloned, tagged with a single biotin, purified and used in the assay. Briefly, human ProRS with a 6× N-terminal His tag in pET28N with TVMV BioP was transformed in E. coli BL21 (DE3) cells, selected, overexpressed and purified using a Ni Seph 6 FF XK 16/20 column in the first stage. Ni-NTA eluates were pooled and treated with TVMV protease, and biotinylated using d-Biotin, MgCl2, ATP and the BirA enzyme. This was rerun through a Ni column as before. The eluates were further enriched and purified using membrane ultrafiltration and a SuperDex 200 XK 16/60 column, and peak fractions were confirmed by SDS-PAGE prior to protein amount determination, aliquoting and storage at −80° C.
ProRS assay was performed in 96 well plates in a final reaction volume of 20 μl, using staggered additions of Tris-Cl (pH 7.5, 60 mM), dithiothreitol (2 mM), ATP (5 mM, pH 7.0), MgCl2 6 mM), ProRS (20 nM, with pre-determined active fraction range) and bovine tRNA (20 μg). Controls and compounds, at various concentrations (10 μM to 0.5 nM), were incubated on ice with enzyme mix for 15 min followed by addition of proline (non-labeled and labeled, 3.96 and 1.04 μM (1 μCi) respectively) to initiate the reaction. Reaction was carried out for 10 min at 37° C. and terminated by addition of TCA (10%, 100 μl). Reaction mix was collected on a Whatman GF/B filter using a vacuum filtration manifold. This filter was washed 3 times with 5% TCA followed by 2 washes with ethanol, air dried, and read using a liquid scintillation counter (TopCount NXT) using MicroScint O. IC50 values were calculated and analyzed using ToolSet (4-parameter plot) and depicted herein.

By IC50 is commonly meant the concentration needed to halve the response being measured.

For the molecule `Cc1cc(Cl)cn2c(=O)c(NC(=O)C[C@H]3NCCC[C@@H]3O)cnc12.Cl` [Example 39, N-(7-Chloro-9-methyl-4-oxo-4H-pyrido [1,2-a]pyrimidin-3-yl)-2-[(2R, 3S)-3-hydroxypiperidin-2-yl]acetamide hydrochloride], the GSH adduct formation entry in the data set on Rat hepatocytes is given as “Negative”. Further, the IC50 in data set [1] is 301 nM.

The values are drawn from patent publication US20210122746A1, “FEBRIFUGINE DERIVATIVES” (BRISTOL-MYERS SQUIBB COMPANY, priority 2017, published 2021).
